Columns and labels:
[1] = UV absorption (E1%cm, extinction, λmax) by absorption spectrophotometer; format: physicochemical; settings: for E1%cm: at λmax 310 nm
Experimental: (§1) p-Methoxy cinnamido propyl dimethyl amine was obtained from Galaxy Surfactants Ltd., Mumbai. Vinyl benzyl chloride was purchased from Seimi Chemical Co., Ltd. Japan. N, N-Diethyl acrylamide was obtained from Sigma Aldrich, India. N-isoproyl acrylamide was synthesized as per the literature procedure (Polym. J., Vol. 25, No. 6, pp. 561-567). Surface tension was measured on Kruss tensiometer by Wilhelmy plate method. Intrinsic viscosity was measured by Ubbelohde viscometer. NMR spectroscopy was done on 400 MHz Bruker machine. Infrared spectra were recorded on FTIR from Perkin Elmer (Spectrum 100). UV Varian's, Cary 50 absorption spectrophotometer was used for UV absorption data.

[2] = Surface tension, Kruss tensiometer, Wilhelmy plate method; format: physicochemical
Experimental: as §1

[3] = Photo-degradation study of cream formulations under UV lamp, 200 h; format: physicochemical; settings: Cream Example VII (without copolymer of Example II)
Experimental: Example VII is a cream formulation with OMC and Avobenzone is exposed for 200 h using UV light from a UV lamp.

[4] = commercial UV absorbers; cited from earlier work
[5] = Photo-degradation study of cream formulations under UV lamp, 200 h; format: physicochemical; settings: Cream of Example VIII (10% copolymer of Example II)

Row | E1%cm [1] | E1%cm ([1]; listed as Step (a) of Example I) | Surface tension of 1% aqueous solution [2] [mN/m] | Component content, UV exposure 200 h [3] [%] | Component content, Unexposed [3] [%] | Component content, Zero h [3] [%] | Component content, UV exposure 200 h [5] [%] | Component content, Unexposed [5] [%] | Component content, Zero h [5] [%] | SMILES | λmax [4] [nm] | molar extinction coefficient ([1]; at 290 nm)
1 | 568 | 463 | 42.6 |  |  |  |  |  |  | C=Cc1ccc(C[N+](C)(C)CCCNC(=O)/C=C/c2ccc(OC)cc2)cc1 [Formula IVa, p-methoxy cinnamido propyl p-vinyl benzyl dimethyl ammonium chloride] |  | 
2 |  |  |  | 2 | 6.0 | 6 | 4.5 | 6.0 | 6.0 | CCCCC(CC)COC(=O)C=Cc1ccc(OC)cc1 (stereo not drawn) [OMC, Octyl methoxy cinnamate] | 302 | 
3 |  |  |  | 0.1 | 2.0 | 2.0 | 1.5 | 2.0 | 2.0 | COc1ccc(C(=O)CC(=O)c2ccc(C(C)(C)C)cc2)cc1 [Avobenzone] | 360 | 
4 |  |  |  |  |  |  |  |  |  | COc1ccc(C=CC(=O)NCCCN(C)C)cc1 [Formula IIa, p-methoxy cinnamidopropyl dimethyl amine] |  | 24,000
